Measured values: patent US10413632B2, “Cement products and methods of making and using the same” (Pioneer Surgical Technology, Inc., priority 2007, dated 2019)

From the text: The side chain amino groups of certain amino acid can serve as nucleophiles for the Michael addition to enones. Generally, amino acids are flaky or crystalline solids at room temperature, thus, they should be dissolved in a liquid to effectively participate in the set reaction.

Row | solubility (w/w) in DAB | solubility (w/w) in PEI | Compound
1 | 19.5% | 18.2% | N[C@@H](CS)C(=O)O [CYS, L-cysteine]
2 |  | 13.8% | Nc1cc(O)nc(N)n1 [DAHP, 2,4-diamino-6-hydroxypyrimidine]
3 |  | 18.8% | Nc1nc(N)c2nc[nH]c2n1 [DAP, diaminopurine]
4 | 28% | 61.24% | N[C@@H](Cc1ccccc1)C(=O)O [PHE, L-phenylalanine]
5 | 29.4% | 46.46% | N[C@@H](Cc1c[nH]c2ccccc12)C(=O)O [TRP, L-Tryptophan]

Row | Compound | solubility (w/w) in DAB | solubility (w/w) in PEI
6 | NCCCC[C@H](N)C(=O)O [LYS, L-Lysine] | 16.1% | 
